Source: PMC7924852, “The Emericellipsins A–E from an Alkalophilic Fungus Emericellopsis alkalina Show Potent Activity against Multidrug-Resistant Pathogenic Fungi” (Journal of Fungi, 2021)
≈ marks a conversion by molar mass, not a printed value. Read-outs that look alike come from different tables or passages of the source.

Tests used:
A. fumigatus 390 m [1] = experiment: Disc-diffusion antifungal assay; format: cell-based, Aspergillus fumigatus; settings: Aspergillus fumigatus, pathogenic clinical isolate
C. glabrata 1402 [2] = experiment: Sensititre YeastOne antifungal susceptibility test; format: cell-based; settings: Nakaseomyces glabratus, 1402
C. krusei 1447 [3] = experiment: Sensititre YeastOne antifungal susceptibility test; format: cell-based
A. niger 1133 m [4] = experiment: Disc-diffusion antifungal assay; format: cell-based, Aspergillus niger; settings: Aspergillus niger, pathogenic clinical isolate
C. parapsilosis 571 [5] = experiment: Sensititre YeastOne antifungal susceptibility test; format: cell-based; settings: Lodderomyces parapsilosis, 571
[6] = test system: Aspergillus niger ATCC 16404; experiment: Disc-diffusion antifungal assay; format: cell-based; settings: Aspergillus niger, ATCC16404, A. niger ATCC 16404
C. tropicalis 156 [7] = experiment: Sensititre YeastOne antifungal susceptibility test; format: cell-based; settings: Candida tropicalis
C. laurentii 325m = experiment: Broth microdilution MIC and MFC (CLSI); format: cell-based, Cr. laurentii; settings: Papiliotrema laurentii; for MIC: 24 h
A. terreus 3 K [8] = experiment: Broth two-fold microdilution MIC (CLSI); format: cell-based; settings: Aspergillus terreus, 3K, 48 h, pH 7, read-out: Minimal Inhibitory Concentration (MIC)
A. niger 1133 m [9] = experiment: Broth two-fold microdilution MIC (CLSI); format: cell-based, Aspergillus niger; settings: Aspergillus niger, 1133M, 48 h, pH 7, read-out: Minimal Inhibitory Concentration (MIC)
[10] = test system: Cryptococcus neoformans 297; experiment: Broth microdilution MIC and MFC (CLSI); format: cell-based
C. parapsilosis 571 [11] = experiment: Broth microdilution MIC and MFC (CLSI); format: cell-based; settings: for MIC: Lodderomyces parapsilosis, 571, 24 h, pH 7
[12] = test system: Cryptococcus neoformans 297; experiment: Sensititre YeastOne antifungal susceptibility test; format: cell-based
A. fumigatus VKM F-37 [13] = experiment: Broth two-fold microdilution MIC (CLSI); format: cell-based, Aspergillus fumigatus; settings: Aspergillus fumigatus, VKMF37, 48 h, pH 7, read-out: Minimal Inhibitory Concentration (MIC)
A. terreus 497 [14] = experiment: Sensititre YeastOne antifungal susceptibility test; format: cell-based
Candida albicans 1402 [15] = experiment: Sensititre YeastOne antifungal susceptibility test; format: cell-based; settings: Candida albicans, 1402
A. fumigatus VKM F-37 [16] = experiment: Disc-diffusion antifungal assay; format: cell-based, Aspergillus fumigatus; settings: Aspergillus fumigatus, VKMF37
C. krusei 1447 [17] = experiment: Broth microdilution MIC and MFC (CLSI); format: cell-based
A. fumigatus 390 m [18] = experiment: Broth two-fold microdilution MIC (CLSI); format: cell-based, Aspergillus fumigatus; settings: Aspergillus fumigatus, 390M, 48 h, pH 7, read-out: Minimal Inhibitory Concentration (MIC)
A. terreus 3 K [19] = experiment: Disc-diffusion antifungal assay; format: cell-based; settings: Aspergillus terreus
Candida albicans 1402 [20] = experiment: Broth microdilution MIC and MFC (CLSI); format: cell-based; settings: for MIC: Candida albicans 1402 clinical isolate, RPMI 1640 pH 7.0, 35 °C, 24 h, read-out: MIC
A. fumigatus 390m = experiment: Sensititre YeastOne antifungal susceptibility test; format: cell-based; settings: Aspergillus fumigatus, 390M
C. glabrata 1402 [21] = experiment: Broth microdilution MIC and MFC (CLSI); format: cell-based; settings: for MIC: Nakaseomyces glabratus, 1402, 24 h, pH 7
C. tropicalis 156 [22] = experiment: Broth microdilution MIC and MFC (CLSI); format: cell-based
A. terreus 497 [23] = experiment: Disc-diffusion antifungal assay; format: cell-based; settings: Aspergillus terreus, A. terreus 497, pathogenic clinical isolate
[24] = test system: clinical isolates of Candida; experiment: Disc-diffusion antifungal assay, clinical yeast isolates; format: cell-based; settings: range over clinical isolates of Candida (Figure S2)
[25] = test system: reference and clinical strains of Aspergillus; experiment: Disc-diffusion antifungal assay, Aspergillus strains; format: cell-based; settings: range over clinical isolates of Aspergillus (Figure S2)
Cr. laurentii 325m = experiment: Sensititre YeastOne antifungal susceptibility test; format: cell-based; settings: Papiliotrema laurentii
Aspergillus niger 1133m = experiment: Sensititre YeastOne antifungal susceptibility test; format: cell-based; settings: Aspergillus niger, 1133M
A. terreus 497 [26] = experiment: Broth two-fold microdilution MIC (CLSI); format: cell-based; settings: Aspergillus terreus, 497, 48 h, pH 7, read-out: Minimal Inhibitory Concentration (MIC)
A. niger ATCC 16404 = experiment: Broth two-fold microdilution MIC (CLSI); format: cell-based, Aspergillus niger; settings: Aspergillus niger, ATCC16404, 48 h, pH 7, read-out: Minimal Inhibitory Concentration (MIC)
[27] = test system: HCT-116 (colon cancer cell line); experiment: MTT cytotoxicity assay; format: cell-based; settings: Homo sapiens, 72 h, three experiments, each in triplicate
Protocol: (§1) Experiments for determining the cytotoxic activity of the compound in MTT assays were performed as previously described. The following tumor cell lines were used for this study: HCT-116 (colon cancer cell line), B16 (mouse melanoma cell line), K-562 (leukemia cell line), MDA-MB-231 (breast cancer line), and MCF-7 (breast cancer cell). Human postnatal fibroblasts were used as a normal cell line, and doxorubicin was used as a positive control. The cell lines were cultured in Dulbecco modified Eagle’s medium supplemented with 5% fetal calf serum, 2 mM Lglutamine, 100 U/mL penicillin, and […] streptomycin at 37 °C, 5% CO2 in a humidified atmosphere. Experiments were carried out on cells in the logarithmic phase of growth. The peptide was dissolved in DMSO as a 10 mM stock solution, followed by serial dilutions in water immediately before the experiment. Briefly, cells (5 × 10^3 in […] of culture medium) were plated in a 96-well plate and treated with 0.1% DMSO (blank control) or with […] of the peptide (0.10‒50 μM; each concentration in duplicate) for 72 h. After incubation with peptide, […] of aqueous MTT solution (3-(4,5-dimethylthiazol-2-yl)-2,5-diphenyltetrazolium bromide, 5 mg/mL) were added into each well for 2‒3 h. Formazan was dissolved in DMSO, and the absorbance at 570 nm was measured. The cytotoxicity at a given EmiA concentration was calculated as the percentage of absorbance in wells with peptide-treated cells compared to that of blank control cells (100%). The IC50 (50% growth inhibitory concentration) was defined as the concentration of EmiA that inhibited MTT conversion by 50%. All the experiments were repeated three times, each time in triplicate. EmiA was tested at a range of concentrations, 0.1‒10 μM.

[28] = test system: B16 (mouse melanoma cell line); experiment: MTT cytotoxicity assay; format: cell-based; settings: Mus musculus, 72 h, three experiments, each in triplicate
Protocol: as §1

[29] = test system: HPF (human postnatal fibroblasts, normal cell line); experiment: MTT cytotoxicity assay; format: cell-based; settings: Homo sapiens, Fibroblast; HPF normal fibroblasts; MTT, 72 h; three experiments, each in triplicate
Protocol: as §1

[30] = test system: clinical yeast isolates (Candida, Cryptococcus); experiment: Broth microdilution MIC/MFC, pathogenic multidrug yeast strains; format: cell-based; settings: whole panel of Candida isolates

C[C@@H]1[C@H](O)[C@@H](C)/C=C/C=C/C=C/C=C/C=C/C=C/C=C/[C@H](O[C@@H]2O[C@H](C)[C@@H](O)[C@H](N)[C@@H]2O)C[C@@H]2O[C@](O)(C[C@@H](O)C[C@@H](O)[C@H](O)CC[C@@H](O)C[C@@H](O)CC(=O)O[C@H]1C)C[C@H](O)[C@H]2C(=O)O [AmpB, Amphotericin B]
zone of inhibition at 40 µg/disc (A. fumigatus 390 m [1]): 15 ± 0.51 mm
MIC (C. glabrata 1402 [2]): 1 µg/mL (≈ 1.08 µM)
MIC (C. krusei 1447 [3]; Pichia kudriavzevii, 1447): 2 µg/mL (≈ 2.16 µM)
zone of inhibition at 40 µg/disc (A. niger 1133 m [4]): 10 ± 0.14 mm
MIC (C. parapsilosis 571 [5]): 1 µg/mL (≈ 1.08 µM)
zone of inhibition at 40 µg/disc [6]: 0 mm
MIC (C. tropicalis 156 [7]; 156): 0.5 µg/mL (≈ 0.541 µM)
MIC (C. laurentii 325m; 325M, pH 7): 0.25 µg/mL (≈ 0.271 µM)
MFC (C. laurentii 325m; C. laurentii 325m, lowest concentration causing 95% death, read-out: MFC): 0.5 µg/mL (≈ 0.541 µM)
MIC (A. terreus 3 K [8]): > 64 µg/mL
MIC (A. niger 1133 m [9]): 1 µg/mL (≈ 1.08 µM)
MFC ([10]; Cryptococcus neoformans 297, lowest concentration causing 95% death, read-out: MFC): 1 µg/mL (≈ 1.08 µM)
MIC ([10]; Cryptococcus neoformans, 297, 24 h, pH 7): 0.5 µg/mL (≈ 0.541 µM)
MIC (C. parapsilosis 571 [11]): 1 µg/mL (≈ 1.08 µM)
MFC (C. parapsilosis 571 [11]; Lodderomyces parapsilosis, C. parapsilosis 571, lowest concentration causing 95% death, read-out: MFC): 1 µg/mL (≈ 1.08 µM)
MIC ([12]; Cryptococcus neoformans, 297): 1 µg/mL (≈ 1.08 µM)
MIC (A. fumigatus VKM F-37 [13]): 1 µg/mL (≈ 1.08 µM)
MIC (class symbol) (A. terreus 497 [14]; Sensititre YeastOne, A. terreus 497): R
MIC (Candida albicans 1402 [15]): 0.5 µg/mL (≈ 0.541 µM)
zone of inhibition at 40 µg/disc (A. fumigatus VKM F-37 [16]): 12 ± 0.23 mm
MIC (C. krusei 1447 [17]; Pichia kudriavzevii, 1447, 24 h, pH 7): 2 µg/mL (≈ 2.16 µM)
MFC (C. krusei 1447 [17]; Pichia kudriavzevii, C. krusei 1447, lowest concentration causing 95% death, read-out: MFC): 4 µg/mL (≈ 4.33 µM)
MIC (A. fumigatus 390 m [18]): 1 µg/mL (≈ 1.08 µM)
zone of inhibition at 40 µg/disc (A. terreus 3 K [19]): 0 mm
MFC (Candida albicans 1402 [20]; Candida albicans 1402, lowest concentration causing 95% death, plated on PDA agar, read-out: MFC): 0.5 µg/mL (≈ 0.541 µM)
MIC (Candida albicans 1402 [20]): 0.5 µg/mL (≈ 0.541 µM)
MIC (A. fumigatus 390m): 1 µg/mL (≈ 1.08 µM)
MIC (C. glabrata 1402 [21]): 1 µg/mL (≈ 1.08 µM)
MFC (C. glabrata 1402 [21]; Nakaseomyces glabratus, C. glabrata 1402, lowest concentration causing 95% death, read-out: MFC): 1 µg/mL (≈ 1.08 µM)
MIC (C. tropicalis 156 [22]; Candida tropicalis, 156, 24 h, pH 7): 0.5 µg/mL (≈ 0.541 µM)
MFC (C. tropicalis 156 [22]; Candida tropicalis, C. tropicalis 156, lowest concentration causing 95% death, read-out: MFC): 1 µg/mL (≈ 1.08 µM)
zone of inhibition at 40 µg/disc (A. terreus 497 [23]): 0 mm
inhibition zones [24]: 10–12 mm
inhibition zones [25]: 15–17 mm
MIC (Cr. laurentii 325m; 325M): 0.5 µg/mL (≈ 0.541 µM)
MIC (Aspergillus niger 1133m): 1 µg/mL (≈ 1.08 µM)
MIC (A. terreus 497 [26]): > 64 µg/mL
MIC (A. niger ATCC 16404): 1 µg/mL (≈ 1.08 µM)

COc1cccc2c1C(=O)c1c(O)c3c(c(O)c1C2=O)C[C@@](O)(C(=O)CO)C[C@@H]3O[C@H]1C[C@H](N)[C@H](O)[C@H](C)O1 [Doxorubicin]
IC50 [27]: 200 ± 30 nM
IC50 [28]: 600 ± 70 nM
IC50 [29]: 200 ± 30 nM

OC(Cn1cncn1)(Cn1cncn1)c1ccc(F)cc1F [FZ, Fluconazole]
MIC (C. glabrata 1402 [2]): > 256 µg/mL
MIC (class symbol) (C. krusei 1447 [3]; Sensititre YeastOne, C. krusei 1447): R
MIC (C. parapsilosis 571 [5]): 128 µg/mL (≈ 418 µM)
MIC (C. tropicalis 156 [7]; Sensititre YeastOne, C. tropicalis 156 clinical isolate, read-out: MIC): 64 µg/mL (≈ 209 µM)
MIC (C. laurentii 325m; C. laurentii 325m clinical isolate, RPMI 1640 pH 7.0, 35 °C, read-out: MIC): 32 µg/mL (≈ 104 µM)
MIC ([10]; Cryptococcus neoformans 297 clinical isolate, RPMI 1640 pH 7.0, 35 °C, 24 h, read-out: MIC): 16 µg/mL (≈ 52.2 µM)
MIC (C. parapsilosis 571 [11]): 128 µg/mL (≈ 418 µM)
MIC ([12]; Sensititre YeastOne, Cryptococcus neoformans 297 clinical isolate, read-out: MIC): 16 µg/mL (≈ 52.2 µM)
MIC (A. terreus 497 [14]; Aspergillus terreus, 497): > 256 µg/mL
MIC (Candida albicans 1402 [15]): 256 µg/mL (≈ 836 µM)
MIC (class symbol) (C. krusei 1447 [17]; C. krusei 1447, symbol R defined in Table S1): R
MIC (Candida albicans 1402 [20]): 64 µg/mL (≈ 209 µM)
MIC (A. fumigatus 390m): > 256 µg/mL
MIC (C. glabrata 1402 [21]): 128 µg/mL (≈ 418 µM)
antifungal activity (in words) [30]: little or no activity
MIC (C. tropicalis 156 [22]; Candida tropicalis, C. tropicalis 156 clinical isolate, RPMI 1640 pH 7.0, 35 °C, 24 h, read-out: MIC): 64 µg/mL (≈ 209 µM)
MIC (Cr. laurentii 325m; Sensititre YeastOne, Cr. laurentii 325m clinical isolate, read-out: MIC): 32 µg/mL (≈ 104 µM)
MIC (Aspergillus niger 1133m): > 256 µg/mL
